Experimental data as given in patent publication US10214490B2, “Picolinamides as fungicides” (Dow AgroSciences LLC, priority 2016, dated 2019).
Where two headings read alike, the source gives them in different places.

What was measured:
Type in all cases: in vivo
Puccinia triticina = assay: Fungicidal activity: wheat brown rust (PUCCRT), disease control on wheat seedlings
Procedure: Technical grades of materials were dissolved in acetone, which were then mixed with nine volumes of water containing 110 ppm Triton X-100. The fungicide solutions were applied onto wheat seedlings using an automated booth sprayer to run-off. All sprayed plants were allowed to air dry prior to further handling. All fungicides were evaluated using the aforementioned method for their activity vs. all target diseases, unless stated otherwise. Wheat leaf blotch and brown rust activity were also evaluated using track spray applications, in which case the fungicides were formulated as EC formulations, containing 0.1% Trycol 5941 in the spray solutions. Wheat plants (variety Yuma) were grown from seed in a greenhouse in 50% mineral soil/50% soil-less Metro mix until the first leaf was fully emerged, with 7-10 seedlings per pot. These plants were inoculated with an aqueous spore suspension of Puccinia triticina either prior to or after fungicide treatments. After inoculation the plants were kept in a dark dew room at 22° C. with 100% relative humidity overnight to permit spores to germinate and infect the leaf. The plants were then transferred to a greenhouse set at 24° C. for disease to develop. Fungicide formulation, application and disease assessment followed the procedures as described in the Example A. Results of the evaluations are shown below in Table 4.

Phakopsora pachyrhizi = assay: Fungicidal activity: Asian soybean rust (PHAKPA), disease control on soybean seedlings; conditions: High Volume at 25 ppm
Procedure: Technical grades of materials were dissolved in acetone, which were then mixed with nine volumes of water containing 0.011% Tween 20. The fungicide solutions were applied onto soybean seedlings using an automated booth sprayer to run-off. All sprayed plants were allowed to air dry prior to further handling.
Soybean plants (variety Williams 82) were grown in soil-less Metro mix, with one plant per pot. Two weeks old seedlings were used for testing. Plants were inoculated either 3 days prior to or 1 day after fungicide treatments. Plants were incubated for 24 h in a dark dew room at 22° C. and 100% relative humidity then transferred to a growth room at 23° C. for disease to develop. Disease severity was assessed on the sprayed leaves.

Zymoseptoria tritici = assay: Fungicidal activity: leaf blotch of wheat (SEPTTR), disease control on wheat seedlings; conditions: for pest or weed control at 121.5 g/ha / pest or weed control at 100 ppm: Zymoseptoria tritici
Procedure: Technical grades of materials were dissolved in acetone, which were then mixed with nine volumes of water containing 110 ppm Triton X-100. The fungicide solutions were applied onto wheat seedlings using an automated booth sprayer to run-off. All sprayed plants were allowed to air dry prior to further handling. All fungicides were evaluated using the aforementioned method for their activity vs. all target diseases, unless stated otherwise. Wheat leaf blotch and brown rust activity were also evaluated using track spray applications, in which case the fungicides were formulated as EC formulations, containing 0.1% Trycol 5941 in the spray solutions. Wheat plants (variety Yuma) were grown from seed in a greenhouse in 50% mineral soil/50% soil-less Metro mix until the first leaf was fully emerged, with 7-10 seedlings per pot. These plants were inoculated with an aqueous spore suspension of Zymoseptoria tritici either prior to or after fungicide treatments. After inoculation the plants were kept in 100% relative humidity (one day in a dark dew chamber followed by two to three days in a lighted dew chamber at 20° C.) to permit spores to germinate and infect the leaf. The plants were then transferred to a greenhouse set at 20° C. for disease to develop. When disease symptoms were fully expressed on the 1st leaves of untreated plants, infection levels were assessed on a scale of 0 to 100 percent disease severity. Percent disease control was calculated using the ratio of disease severity on treated plants relative to untreated plants.

[1] = Puccinia triticina, 24 h, LV activity at 121.5 g/H, 1 Day Protectant, read-out: PUCCRT 1DP disease control rating
[2] = Puccinia triticina, 72 h, LV activity at 121.5 g/H, 3 Day Curative, read-out: PUCCRT 3DC disease control rating
[3] = 24 h, 1 Day Protectant, read-out: PHAKPA 1DP disease control rating
[4] = 72 h, 3 Day Curative, read-out: PHAKPA 3DC disease control rating
[5] = 24 h, LV activity at 121.5 g/H, 1 Day Protectant, read-out: SEPTTR 1DP disease control rating
[6] = 72 h, LV activity at 121.5 g/H, 3 Day Curative, read-out: SEPTTR 3DC disease control rating
[7] = HV activity at 100 ppm, 3 Day Curative
[8] = LV activity at 121.5 g/H, 3 Day Curative
[9] = HV activity at 100 ppm, 1 Day Protectant

Structure (SMILES) | pest or weed control at 121.5 g/ha (Puccinia triticina; [1]) | pest or weed control at 121.5 g/ha (Puccinia triticina; [2]) | pest or weed control at 25 ppm (Phakopsora pachyrhizi; [3]) | pest or weed control at 25 ppm (Phakopsora pachyrhizi; [4]) | pest or weed control at 121.5 g/ha (Zymoseptoria tritici; [5]) | pest or weed control at 121.5 g/ha (Zymoseptoria tritici; [6]) | also measured
COc1ccnc(C(=O)N[C@@H](C)C(=O)O[C@@H](C)[C@@H](c2ccccc2)S(=O)(=O)c2ccc(C)cc2)c1OC(C)=O [Compound 66] | ≤ 80% | ≤ 80% | ≤ 80% | ≤ 80% | > 80% | ≤ 80% | 
COc1cc(F)ccc1[C@@H](Sc1ccccc1)[C@H](C)OC(=O)[C@H](C)NC(=O)c1nccc(OC)c1OC(C)=O [Compound 59] | > 80% |  |  |  | ≤ 80% | ≤ 80% | 
COc1ccnc(C(=O)N[C@@H](C)C(=O)O[C@@H](C)[C@H](Sc2ccccc2)c2ccccc2)c1OC(=O)OC(C)=O [Compound 80] | > 80% | ≤ 80% | ≤ 80% | ≤ 80% | ≤ 80% | ≤ 80% | 
COc1cc(F)ccc1[C@@H](Sc1ccccc1)[C@H](C)OC(=O)[C@H](C)NC(=O)c1nccc(OC)c1O [Compound 40] |  |  |  |  |  |  | PUCCRT 3DC disease control rating (Puccinia triticina; [7]): A (>80); pest or weed control at 100 ppm (Puccinia triticina; Puccinia triticina, 24 h, HV activity at 100 ppm, 1 Day Protectant, read-out: PUCCRT 1DP disease control rating): > 80%; pest or weed control at 100 ppm (Zymoseptoria tritici; 24 h, HV activity at 100 ppm, 1 Day Protectant, read-out: SEPTTR 1DP disease control rating): > 80%; pest or weed control at 100 ppm (Zymoseptoria tritici; 72 h, HV activity at 100 ppm, 3 Day Curative, read-out: SEPTTR 3DC disease control rating): > 80%
COc1ccnc(C(=O)N[C@@H](C)C(=O)O[C@@H](C)[C@H](Sc2ccccc2)c2ccccc2)c1OC(=O)OC(=O)C(C)C [Compound 79] | > 80% | ≤ 80% | ≤ 80% | ≤ 80% | > 80% | > 80% | 
COc1ccnc(C(=O)N[C@@H](C)C(=O)O[C@@H](C)[C@@H](c2ccccc2)S(=O)(=O)c2ccc(C(F)(F)F)cn2)c1OC(C)=O [Compound 71] | ≤ 0% | ≤ 80% | ≤ 80% | ≤ 80% | ≤ 80% | ≤ 80% | 
COc1ccnc(C(=O)N[C@@H](C)C(=O)O[C@@H](C)[C@H](Sc2ccccc2)c2ccc(F)cc2)c1OC(C)=O [Compound 85] |  | ≤ 0% | ≤ 80% | ≤ 0% |  |  | SEPTTR 1DP disease control rating (Zymoseptoria tritici; LV activity at 121.5 g/H, 1 Day Protectant): B (≤80); SEPTTR 3DC disease control rating (Zymoseptoria tritici; [8]): D (≤0)
COc1cc(F)ccc1[C@@H](Sc1ccccc1)[C@H](C)OC(=O)[C@H](C)NC(=O)c1nccc(OC)c1O [Compound 57] |  |  |  |  |  |  | PUCCRT 1DP disease control rating (Puccinia triticina; [9]): A (>80); PUCCRT 3DC disease control rating (Puccinia triticina; [7]): D (≤0); SEPTTR 1DP disease control rating (Zymoseptoria tritici; [9]): B (≤80); SEPTTR 3DC disease control rating (Zymoseptoria tritici; [7]): A (>80)
COc1cc(F)ccc1[C@@H](Sc1ccccc1)[C@H](C)OC(=O)[C@H](C)NC(=O)c1nccc(OC)c1OC(C)=O [Compound 84] |  |  |  |  |  |  | PUCCRT 3DC disease control rating (Puccinia triticina; [8]): B (≤80)
COc1ccnc(C(=O)N[C@@H](C)C(=O)O[C@@H](C)[C@H](Sc2ccc(F)cc2C)c2ccccc2)c1OC(C)=O [Compound 83] |  | ≤ 0% |  |  | ≤ 80% |  | SEPTTR 3DC disease control rating (Zymoseptoria tritici; [8]): D (≤0)
